Test results taken from PMC12714101, “CD160-Derived Peptide as a Bidirectional Inhibitor Toward Immune Checkpoints BTLA/HVEM and HVEM/LIGHT” (Journal of Medicinal Chemistry, 2025).
Where a SMILES comes first, the peptide text is derived from it.

What was measured:
Jurkat E6.1 cells = settings: 150 µM
Description: (§1) Before conducting cellular assays, the effects of the peptides on cell viability in Jurkat E6.1 and T cell stimulator (TCS) cell lines, as well as their stability in cell culture supernatant, were evaluated. Jurkat E6.1 cells are human T cell acute lymphoblastic leukemia cells, while TCS is a modified murine thymoma cell line (BW5147). The cellular platforms described below are based on these cells. […] The stability of the peptides in supernatant collected from cells after 24 h of incubation was also assessed.
(§2) Comparison of the binding affinity obtained from SpS and MM-GBSA
(§3) Table S3. Experimental and theoretical binding affinities for the BTLA/HVEM and HVEM/peptide complexes. Experimental Kd values obtained from SpS were used to calculate the corresponding ΔG, while theoretical ΔG values were obtained from MM-GBSA analysis. protein/protein ΔG ΔG obtained from or K [µmol] SD calculated SD MM-GBSA SD
(§4) The cytotoxicity of the peptides against two cell lines, Jurkat E6.1 and TCS, was examined. To estimate the number of viable cells, the CellTiter-Glo® luminescence-based assay

BTLA/HVEM complex = target: T1, BTLA/HVEM complex (Homo sapiens, UniProt Q92956); assay: ELISA inhibition of BTLA/HVEM complex formation; assay type: biochemical; settings: immobilized HVEM-His, BTLA-Fc 5 μg/mL, PBS-T, 37 °C, mean of three independent experiments; for inhibition at 16.67 µM: peptide 16.67 μM; for inhibition at 50 µM: peptide 50 μM; for inhibition at 150 µM: peptide 150 μM
T1 construct: purchased ACROBiosystems HVM-H52E9 (HVEM-His); BTA-H5255 (BTLA-Fc)
T1 sequence (Q92956 39-202 limits assumed): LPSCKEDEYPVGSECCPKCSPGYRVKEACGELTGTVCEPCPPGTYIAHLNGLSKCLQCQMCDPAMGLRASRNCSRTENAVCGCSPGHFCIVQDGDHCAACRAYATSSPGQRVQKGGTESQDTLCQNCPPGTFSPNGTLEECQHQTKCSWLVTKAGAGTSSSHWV
Description: In the subsequent stage of the study, the potential of the obtained compounds to inhibit the interaction between BTLA and HVEM proteins was evaluated using ELISA, following the methodology described in our previous studies. , HVEM was immobilized on the plate and incubated with peptides at three different concentrations, followed by the addition of Fc-tagged BTLA. Detection was carried out using horseradish peroxidase (HRP) conjugated with anti-human IgG and 3,3′,5,5′-tetramethylbenzidine (TMB) as a substrate. Signal intensity was directly proportional to the amount of BTLA bound to HVEM and inversely proportional to the inhibitory activity of the tested peptides. As a control, BTLA and HVEM were incubated in the absence of peptides.
Recombinant human HVEM protein with a His tag was purchased from ACROBiosystems, Newark, DE, USA (no. HVM-H52E9). Recombinant human protein BTLA-Fc and LIGHT-Fc were also purchased from ACROBiosystems, Newark, DE, USA (no. BTA-H5255 and no. LIT-H5269).
ELISA was performed using transparent 96-well NUNC Maxisorp plates (Thermo Fisher Scientific, Waltham, MA, USA). In the first step, HVEM-His, dissolved in PBS at a concentration of 5 μg/mL (100 μL/well), was immobilized on the plate by overnight incubation at 4 °C. Wells were then blocked with 5% bovine serum albumin (BSA) in PBS containing 0.05% Tween 20 (PBS-T) (200 μL/well). Next, peptides dissolved in PBS-T at concentrations of 150, 50, and 16.67 μM were added to the wells (100 μL/well). Following this, BTLA-Fc in PBS-T at a concentration of 5 μg/mL (100 μL/well) was applied. In the next step, goat anti-human IgG antibody conjugated with the HRP (Bio-Rad Laboratories, Hercules, CA, USA) in PBS-T at a ratio of 1:30,000 (v/v) was added (100 μL/well). Colorimetric detection was performed by adding 100 μL of TMB substrate (Thermo Fisher Scientific, Waltham, MA, USA) to each well and incubating the plate in the dark. At each stage, plates were incubated at 37 °C with continuous shaking for 1 h (except TMB, which was incubated for 15 min). After each incubation, wells were washed five times with PBS-T. Absorbance was measured using an Infinite M200 Pro Reader (Tecan Group Ltd., Männedorf, Switzerland) at wavelengths of 650 nm (measurement wavelength) and 492 nm (reference wavelength). Inhibition assays for the HVEM/LIGHT complex were conducted using the same approach, except that LIGHT was used instead of BTLA. The BTLA/HVEM and HVEM/LIGHT complexes without peptides served as controls. Inhibition percentages were calculated based on the assumption that PBS-T has no effect on the formation of BTLA/HVEM or HVEM/LIGHT complexes. Each ELISA was conducted in at least three independent replicates. The data were analyzed using GraphPad Prism 8 software (San Diego, CA, USA).

BTLA/HVEM interaction = assay: Cellular reporter assay, HVEM reporter cells (JE6.1-NF-κB::eGFP) stimulated with TCS-BTLA; assay type: cell-based, human; settings: 30 min preincubation, 24 h coculture, NF-κB::eGFP by flow cytometry, mean of four independent experiments in duplicate; for Inhibition - Cellular assay 16.67 µM: peptide 16.67 μM; for Inhibition - Cellular assay 50 µM: peptide 50 μM; for Inhibition - Cellular assay 150 µM: peptide 150 μM
Description: In the next step of the study, the inhibitory properties of the designed peptides were evaluated using previously described cell-based assays. The experiment utilized reporter cells expressing HVEM (JE6.1-NF-κB::eGFP) and T cell stimulator cells expressing BTLA (TCS-BTLA). Activation of the reporter cells by TCS followed a two-signal model. The first is generated through the interaction between the T cell receptor–cluster of differentiation 3 (TCR–CD3) complex on the surface of the reporter cells and a membrane-bound antihuman CD3 single-chain antibody fragment (mAb aCD3) expressed on the TCS cells. The second signal is provided by the binding of HVEM and BTLA, which in this assay results in a strong costimulatory signal via HVEM. Activation of the reporter cells leads to the expression of nuclear factor kappa light chain enhancer of activated B cells (NF-κB), which correlates with the level of enhanced green fluorescent protein (eGFP), measured by flow cytometry. In the absence of peptides, NF-κB expression is normalized to 100%. Disruption of the BTLA/HVEM interaction by peptides results in a concentration-dependent decrease in NF-κB levels. In this study, HVEM-expressing reporter cells were stimulated with BTLA-expressing TCS cells in the presence or absence of tested peptides at three different concentrations.
Cellular studies were performed in the same procedure as we described previously for gD- and BTLA-derived peptides. , The peptides were dissolved in the medium, and their final concentrations in wells were 150, 50, and 16,7 μM. Briefly, reporter cells expressing HVEM (JE6.1-NF-κB::eGFP) (5 × 10^4 cells/well) were preincubated with peptides for 30 min in a 96-well flat-bottom plate. Subsequently, the second cell line expressing BTLA (TCS BTLA) or LIGHT (TCS LIGHT) (2 × 10^4 cells/well) was added and cocultured for 24 h at 37 °C in an atmosphere of 5% CO2. Next, an APC-conjugated mCD45.2 antibody to exclude TCS from the reporter cells was added. The expression of the reporter gene (eGFP) was measured via flow cytometry using a CytoFLEX flow cytometer (Beckman Coulter Inc., Brea, CA, USA), and the results were analyzed using FlowJo v10.10 (FlowJo LLC, Ashland, OR, USA). The data were analyzed using GraphPad Prism 8 software (San Diego, CA, USA).

[1] = system: T cell stimulator (TCS) cell line (BW5147); settings: 150 µM
Description: as §1, §2, §3, §4

Compound | Cell viability, Jurkat E6.1 (Jurkat E6.1 cells) [%] | inhibition at 16.67 µM (BTLA/HVEM complex) [%] | inhibition at 50 µM (BTLA/HVEM complex) [%] | inhibition at 150 µM (BTLA/HVEM complex) [%] | Inhibition - Cellular assay 16.67 µM (BTLA/HVEM interaction) [%] | Inhibition - Cellular assay 50 µM (BTLA/HVEM interaction) [%] | Inhibition - Cellular assay 150 µM (BTLA/HVEM interaction) [%] | Cell viability, TCS [1] [%]
CC(=O)N[C@@H](Cc1ccccc1)C(=O)N[C@H](C(=O)N[C@H](C(=O)N[C@@H](Cc1ccccc1)C(=O)N[C@@H](CC(C)C)C(=O)N[C@H]1CSSC[C@@H](C(=O)N[C@@H](CO)C(=O)N2CCC[C@H]2C(=O)N[C@@H](CCC(=O)O)C(=O)N[C@H](C(=O)N[C@@H](CO)C(=O)N[C@@H](CC(C)C)C(=O)N[C@@H](CCCCN)C(=O)N[C@@H](CCC(N)=O)C(=O)N[C@@H](CC(C)C)C(=O)N[C@@H](CCCNC(=N)N)C(=O)N[C@@H](CC(C)C)C(N)=O)[C@@H](C)O)NC(=O)[C@H](CC(=O)O)NC(=O)CNC(=O)[C@H](CO)NC(=O)[C@H](CCCNC(=N)N)NC(=O)[C@H](CC(=O)O)NC(=O)[C@H](CCCCN)NC1=O)C(C)C)C(C)C [B5, CD160(56–79)] (HELM PEPTIDE1{[ac].F.V.V.F.L.C.K.D.R.S.G.D.C.S.P.E.T.S.L.K.Q.L.R.L.[am]}$PEPTIDE1,PEPTIDE1,7:R3-14:R3$$$V2.0) | 75 | -7.56 | -7.13 | -4.6 | 12.02 | 12.02 | 2.50 | 
CC(=O)N[C@@H](Cc1ccccc1)C(=O)N[C@@H](CC(C)C)C(=O)N[C@H]1CSSC[C@@H](C(=O)N[C@@H](CO)C(=O)N2CCC[C@H]2C(=O)N[C@@H](CCC(=O)O)C(=O)N[C@H](C(=O)N[C@@H](CO)C(=O)N[C@@H](CC(C)C)C(=O)N[C@@H](CCCCN)C(N)=O)[C@@H](C)O)NC(=O)[C@H](CC(=O)O)NC(=O)CNC(=O)[C@H](CO)NC(=O)[C@H](CCCNC(=N)N)NC(=O)[C@H](CC(=O)O)NC(=O)[C@H](CCCCN)NC1=O [C3, CD160(59–75)] (HELM PEPTIDE1{[ac].F.L.C.K.D.R.S.G.D.C.S.P.E.T.S.L.K.[am]}$PEPTIDE1,PEPTIDE1,4:R3-11:R3$$$V2.0) |  | 1.86 | 2.02 | 0.4 | 5.70 | 4.25 | 4.78 | 
CC[C@@H]1NC(=O)[C@H](CC(C)C)NC(=O)[C@H](Cc2ccccc2)NC(=O)[C@H](C(C)C)NC(=O)[C@@H](NC(=O)[C@H](Cc2ccccc2)NC(C)=O)CSSC[C@@H](C(=O)N[C@@H](CC(C)C)C(N)=O)NC(=O)[C@H](CC(C)C)NC(=O)[C@H](CCC(N)=O)NC(=O)[C@H](CCCCN)NC(=O)[C@H](CC(C)C)NC(=O)[C@H](CO)NC(=O)[C@H]([C@@H](C)O)NC(=O)[C@H](CCC(=O)O)NC(=O)[C@@H]2CCCN2C(=O)[C@H](CO)NC(=O)[C@H](CC)NC(=O)[C@H](CC(=O)O)NC(=O)CNC(=O)[C@H](CO)NC(=O)[C@H](CCCNC(=N)N)NC(=O)[C@H](CC(=O)O)NC(=O)[C@H](CCCCN)NC1=O [B2, CD160(56–79)^(V57C,C61X,C68X,R78C)] (HELM PEPTIDE1{[ac].F.C.V.F.L.[Abu].K.D.R.S.G.D.[Abu].S.P.E.T.S.L.K.Q.L.C.L.[am]}$PEPTIDE1,PEPTIDE1,3:R3-24:R3$$$V2.0) | 47 | -3.89 | -2.56 |  |  |  |  | 9
CC[C@H](NC(=O)[C@H](CCC(N)=O)NC(=O)[C@H](Cc1ccc(O)cc1)NC(C)=O)C(=O)N[C@H]1CSSC[C@@H](C(=O)NCC(=O)N[C@@H](Cc2c[nH]cn2)C(=O)N[C@@H](Cc2ccccc2)C(=O)N[C@@H](Cc2ccccc2)C(N)=O)NC(=O)[C@H](CC(C)C)NC(=O)[C@H](CCCNC(=N)N)NC(=O)[C@H]([C@@H](C)CC)NC(=O)CNC(=O)[C@H](CO)NC(=O)[C@H](CCCCN)NC(=O)[C@H](CCC(N)=O)NC(=O)[C@H](CO)NC(=O)[C@H](CCCNC(=N)N)NC(=O)[C@H](C)NC1=O [A3, CD160(110–128)^(C112X,Q124C)] (HELM PEPTIDE1{[ac].Y.Q.[Abu].C.A.R.S.Q.K.S.G.I.R.L.C.G.H.F.F.[am]}$PEPTIDE1,PEPTIDE1,5:R3-16:R3$$$V2.0) |  | -0.96 | -0.72 | 3.85 |  |  |  | 
